Laboratory results published in ChEMBL document CHEMBL1121563, “8-Hydroxyanthracyclinones from epsilon-rhodomycinone” (1980).
Calls of active or inactive are those of the source. The calls are words filed in the database; no cut-off is given here.

Key:
[1] = tested on: Escherichia coli; assay: Compound is evaluated for lambda-phage induction activity in Escherichia coli (dose at 50 ug/mL); format: functional
[2] = tested on: Escherichia coli; assay: Compound is evaluated for lambda-phage induction activity in Escherichia coli (dose at 12.5 ug/mL); format: functional
[3] = tested on: Escherichia coli; assay: Compound is evaluated for lambda-phage induction activity in Escherichia coli (dose at 6.2 ug/mL); format: functional
[4] = tested on: Escherichia coli; assay: Compound is evaluated for lambda-phage induction activity in Escherichia coli (dose at 3.1 ug/mL); format: functional
[5] = tested on: Escherichia coli; assay: Compound is evaluated for lambda-phage induction activity in Escherichia coli (dose at 25 ug/mL); format: functional
[6] = tested on: Bacillus subtilis; assay: Compound was tested for its lambda-phage induction activity against Bacillus subtilis in a disk plate assay at concentration of dose of 0.8 ug/mL; Active; format: functional, organism-based
[7] = tested on: Escherichia coli; assay: Compound is evaluated for lambda-phage induction activity in Escherichia coli (dose at 1.6 ug/mL); format: functional
[8] = tested on: Escherichia coli; assay: Compound is evaluated for lambda-phage induction activity in Escherichia coli (dose at 0.8 ug/mL); format: functional
[9] = tested on: Escherichia coli; assay: Compound is evaluated for lambda-phage induction activity in Escherichia coli (dose at 6.2 ug/mL); Toxic to culture; format: functional
[10] = tested on: Escherichia coli; assay: Compound is evaluated for lambda-phage induction activity in Escherichia coli (dose at 50 ug/mL); Toxic to culture; format: functional

Structure (SMILES)	Activity [1]	Activity [2]	Activity [3]	Activity [4]	Activity [5]	Activity [6]	Activity [7]	Activity [8]	Activity [9]	Activity [10]
CC[C@@]12O[C@@H]1Cc1c(O)c3c(c(O)c1[C@H]2C(=O)OC)C(=O)c1cccc(O)c1C3=O	3	1.1	1.4	1.2	2					
CCC1=CCc2c(O)c3c(c(O)c2[C@H]1C(=O)OC)C(=O)c1cccc(O)c1C3=O	13.4	6	2.8		9.3					
CC[C@]12O[C@H]1Cc1c(O)c3c(c(O)c1[C@H]2C(=O)OC)C(=O)c1cccc(O)c1C3=O	2.9	1.5	1.3	1.2	1.9					
CC(=O)[C@]1(O)Cc2c(O)c3c(c(O)c2[C@@H](O[C@H]2C[C@H](N)[C@H](O)[C@H](C)O2)C1)C(=O)c1c(O)cccc1C3=O [CARUBICIN]			7	6.2		Active	3	2.2		
COc1cccc2c1C(=O)c1c(O)c3c(c(O)c1C2=O)C[C@@](O)(C(C)=O)C[C@@H]3O[C@H]1C[C@H](N)[C@H](O)[C@H](C)O1 [DAUNORUBICIN]				11.9		Active	5.3	3.1	11.1	
CC[C@@]1(O)C[C@H](O)c2c(O)c3c(c(O)c2[C@H]1C(=O)OC)C(=O)c1cccc(O)c1C3=O		1.5			1.8					2.9
CC[C@H]1CCc2c(O)c3c(c(O)c2[C@H]1C(=O)OC)C(=O)c1cccc(O)c1C3=O	2.4	1.2	1.3	1	1.8					
